These results are taken from US20250002450A1, “CATIONIC STEROID COMPOUNDS, METHOD OF OBTAINING THEREOF, FORMULATIONS COMPRISING THEREOF AND THEIR USES” (UNIVERSIDADE DO PORTO, priority 2021, published 2025).

A value given as a limit tells only on which side of the number the result lay.

Assay [1] relates to C. albicans ATCC 10231. The experiment in a line: Checkerboard synergy with antifungal drugs. Format: cell-based, Candida albicans.
Protocol: According to the consensus interpretation of FICI values, FICI≤0.5 is interpreted as ‘synergy’. […] Inoculum and compound solutions were prepared as described for antifungal susceptibility testing. Fractional inhibitory concentrations (FIC) were calculated as follows: FIC of compound=MIC of compound combined with antifungal/MIC compound alone, and FIC antifungal=MIC of antifungal combined with compound/MIC of antifungal alone. The FIC index (FICI) was calculated as the sum of each FIC and interpreted as follows: FICI≤0.5, ‘synergy’; 0.5<FICI≤4, ‘no interaction’; FICI>4, ‘antagonism’. At least three independent experiments were performed and mean FICI was calculated.
In assay [2] the test system is C. albicans ATCC 10231. The experiment in a line: Potassium ion efflux analysis. The assay is classed as cell-based, Candida albicans. The conditions noted are these: 5 min. The protocol: In an embodiment, the potassium ion (K^+) efflux analysis was performed as follows ([FIG. 9]). Leakage of potassium ions is a common response to membrane-disrupting agents; therefore, extracellular K^+ was quantified by flame atomic absorption spectrometry, after 5 min of exposure to compound 1 ([FIG. 10]). […] Efflux of potassium was determined by quantification of extracellular K^+ by flame atomic absorption spectrometry. Cell suspensions of C. albicans ATCC 10231 were prepared in the same manner as described for PI influx assay, and test conditions were also the same. After 5 min of exposure, cells were centrifuged for 10 min at 3500 rpm and the supernatants were filtrated using a cellulose acetate syringe filter with a 0.22 µm pore size. Samples were analyzed with a AAnalyst 200 Atomic Absorption Spectrometer (Perkin Elmer). Four independent assays were performed and the data are presented as percentage of control (untreated cells as […] of K^+).

Assay [3] concerns E. coli SA/2. The experiment in a line: Checkerboard synergy with CTX. The assay is classed as cell-based. The protocol:
The combined effect of compound 1 and CTX for E. coli SA/2, VAN for E. faecalis B3/101, COL for E. coli 2252, erythromycin for E. coli ATCC 25922, and OXA for S. aureus 66/1 was evaluated by the checkerboard method. […] The interaction between compound 1 and erythromycin was assessed for E. coli ATCC 25922. Gram-negative bacteria are intrinsically resistant to erythromycin, a macrolide that inhibits protein synthesis, and cannot penetrate the outer membrane of Gram-negative bacteria, which is impermeable to hydrophobic antibiotics. Ascertain ceragenins have been previously described to be able to enhance the efficacy of such antibiotics, this possibility was investigated for compound 1 and a FICI of 0.6 was obtained.

The subject of assay [4] is Escherichia coli ATCC 25922. The experiment in a line: Kirby-Bauer disk diffusion. Format: cell-based. The following applies: 15 μg per disk. The procedure: (§1) An initial screening of the antibacterial activity of the compounds was performed by the Kirby-Bauer disk diffusion method, as recommended by the Clinical and Laboratory Standards Institute (CLSI). Briefly, sterile 6 mm blank paper disks (Oxoid, Basingstoke, England) impregnated with 15 μg of each compound were placed on inoculated MH agar plates. A blank disk with dimethylsulfoxide (DMSO) was used as a negative control. MH inoculated plates were incubated for 18-20 h at 37 degrees C. At the end of incubation, the inhibition halos where measured. The MIC was used to determine the antibacterial activity of each compound, in accordance with the recommendations of the CLSI. Two-fold serial dilutions of the compounds were prepared in Mueller-Hinton Broth 2 (MHB2—Sigma-Aldrich, St. Louis, MO, USA) within the concentration range of 0.062-64 μg/mL. CTX ranging between 0.031-16 μg/mL was used as a control. Sterility and growth controls were included in each assay. Purity checks and colony counts of the inoculum suspensions were also performed in order to ensure that the final inoculum density closely approximates the intended number (5×10^5 CFU/mL). The MIC was determined as the lowest concentration of compound that inhibited growth of the bacteria. The MBC was assessed by spreading 10 μL of culture collected from wells showing no visible growth on MH agar plates. […] These assays were performed in duplicate.
On the technique in general: Agar diffusion results depend on both activity and mobility in agar.

Assay [5] concerns Staphylococcus aureus ATCC 29213. The experiment in a line: Kirby-Bauer disk diffusion. The following applies: 15 μg per disk. Format: cell-based. The procedure: as §1
The subject of assay [6] is E. coli SA/2 (ESBL). The experiment in a line: Kirby-Bauer disk diffusion. Format: cell-based. The following applies: 15 μg per disk. The procedure: as §1
The test system of assay [7] is Pseudomonas aeruginosa ATCC 27853. The experiment in a line: Kirby-Bauer disk diffusion. Format: cell-based. The conditions noted are these: 15 μg per disk. The procedure: as §1

Consider `C[C@H](CCC(=O)NCCN)[C@H]1CC[C@H]2[C@@H]3CC[C@@H]4C[C@H](O)CC[C@]4(C)[C@H]3C[C@H](O)[C@]12C` [Compound 1, (R)—N-(2-aminoethyl)-4-((3R,5R,8R,9S,10S,12S,13R,14S,17R)-3,12-dihydroxy-10,13-dimethylhexadecahydro-1H-cyclopenta[a]phenanthren-17-yl) pentanamida], for which the “effect on trailing caused by fluconazole at its MIC (in words)” value in assay [1] (16 μg/mL of compound 1 (¼×MIC), fluconazole 2 μg/mL) is listed as “eliminated trailing”. In addition, the “fractional inhibitory concentration index (FICI)” value in assay [1] (with amphotericin B) and in assay [1] (with fluconazole) was at most 0.5 throughout. In assay [2] (128, 64, and 32 μg/mL (2×MIC, MIC, ½×MIC)), the “levels of extracellular K+ vs untreated control” value was “significant levels of extracellular K”. The “combined effect with CTX (in words)” value in assay [3] was “No synergistic interactions”. The Disk diffusion in assay [4] is recorded as 8 mm; in assay [5], 13 mm; in assay [6] it was 8 mm; in assay [7], 8 mm.

In the case of `OC(Cn1cncn1)(Cn1cncn1)c1ccc(F)cc1F` [Fluconazole, reference compound], the “levels of extracellular K+ vs untreated control” value in assay [2] (8 μg/mL) is reported as “not”.
